This note sets out measurements from US11497738B2, “Di-substituted pyrazole compounds for the treatment of diseases” (FGH BIOTECH, INC., priority 2016, dated 2022).

This test concerns SCD1 expression. Kind of test: Inhibition assay: qPCR of SCD1 expression in HepG2 cells (Biological Example 1). Format: cell-based. The settings on record: Homo sapiens, 24 hours; for inhibition at 1 µM: read-out: Inhibition Percentage (%) 1 μM (SCD1 expression); for inhibition at 10 µM: read-out: Inhibition Percentage (%) 10 μM (SCD1 expression). The protocol:
HepG2 cells were grown in Dulbecco's Modified Eagle Medium (DMEM) containing 5% FBS and antibiotic-antimycotic in a humidified incubator at 37° C. with 5% CO2. All three components were purchased from ThermoFisher Scientific (Catalog numbers are 11995073, 26140079, and 15240062, respectively). Treatments were done in duplicates for each dose of each compound. For control and treated each treatment, 400,000 HepG2 cells were seeded onto 1 well of 24-well plate. After one day in culture, cells were treated with the test compound (1 μM and/or 10 μM, as indicated below in Table 1) for 24 hours in DMEM with 5% FBS. Compounds were diluted using DMSO from 20 mM stocks. Total RNAs were extracted using RNA extraction kit (Cat #: 45001163, Fisher Scientific) or Trizol. If Trizol was used, RNAs were treated with DNase I (cat #: 18068015, ThermoFisher Scientific) before qPCR. RNA concentrations were measured on a Nanodrop. One-step qPCR were performed using SYBR Green One Step qPCR Kit (Cat #: B25002, Biotool). 10 ng RNA was used in each 10-ul reaction. Triplicate reactions were done for each RNA sample. qPCR was performed on an ABI StepOnePlus using the program: Holding stage step 1, 50° C. 3 min, step 2, 95° C. 5 min; Cycling stage (40 cycles) step 1, 95° C. 10 sec, step 2, 60° C. 30 sec. Primer sequence was as follows: SCD1, 5′-[…]-3′/5′-[…]-3′.
All data was measured in HepG2 cells. % inhibition data of SCD1 expression are provided in Table 1. % inhibition at 10 μM is provided as follows: A≥75%; 75%>B≥50%; 50%>C≥10%. % inhibition at 1 μM is provided as follows: A1≥30%; 30%>B1≥2%. NI means no inhibition in the assay at the indicated concentration of compound tested. NT means not tested.
On the technique in general: Quantitative PCR measures a nucleic acid by following its amplification.

For the molecule `CCCc1cc(-n2cc(-c3ncc(NS(=O)(=O)C4CC4)cc3Cl)cn2)ccn1` [Example 28, N-(5-chloro-6-(1-(2-propylpyridin-4-yl)-1H-pyrazol-4-yl)pyridin-3-yl)cyclopropanesulfonamide], the inhibition (in general, how much of the control response was suppressed) at 1 µM lay within 2 to 30% and the inhibition at 10 µM was over 75%. The corresponding values for `CCCc1cc(-n2cc(-c3ncc(NC4CCCC4)cc3Cl)cn2)ccn1` [Example 25, 5-chloro-N-cyclopentyl-6-(1-(2-propylpyridin-4-yl)-1H-pyrazol-4-yl)pyridin-3-amine] are at least 30% and over 75%. `CCCc1cc(-n2cc(-c3ccc(NCC4CC4)nc3)c(C)n2)ccn1` [Example 54, N-(cyclopropylmethyl)-5-(3-methyl-1-(2-propylpyridin-4-yl)-1H-pyrazol-4-yl)pyridin-2-amine]: the inhibition at 10 µM was in the range of 50 to 75%. Turning to `CCCc1cc(-n2cc(-c3ccc(NS(C)(=O)=O)cc3Cl)cn2)ccn1` [Example 9, N-(3-chloro-4-(1-(2-propylpyridin-4-yl)-1H-pyrazol-4-yl)phenyl)methanesulfonamide], the inhibition at 1 µM is at least 30% and the inhibition at 10 µM was over 75%. For `CCCc1cc(-n2cc(-c3ccc(NCC(C)C)nc3)c(C)n2)ccn1` [Example 53, N-isobutyl-5-(3-methyl-1-(2-propylpyridin-4-yl)-1H-pyrazol-4-yl)pyridin-2-amine], in that order: 2 to 30% and over 75%. On to `CCCc1cc(-n2cc(-c3ccc(NC(C)C)cc3)cn2)ccn1` [Example 6, N-isopropyl-4-(1-(2-propylpyridin-4-yl)-1H-pyrazol-4-yl)aniline], for which the inhibition at 10 µM was over 75%. Regarding `CCCc1cc(-n2cc(-c3ccc(NC(C)C)cn3)cn2)ccn1` [Example 21, N-isopropyl-6-(1-(2-propylpyridin-4-yl)-1H-pyrazol-4-yl)pyridin-3-amine], the inhibition at 1 µM was in the range of 2 to 30% and the inhibition at 10 µM is over 75%. As for `CCCc1cc(-n2cc(-c3ccc(NC4CCCC4)cn3)cn2)ccn1` [Example 23, N-cyclopentyl-6-(1-(2-propylpyridin-4-yl)-1H-pyrazol-4-yl)pyridin-3-amine], the inhibition at 1 µM lay in the range of 2 to 30% and the inhibition at 10 µM was over 75%. With `CCCc1cc(-n2cc(-c3ccc(NS(=O)(=O)C4CC4)cc3)cn2)ccn1` [Example 1, N-(4-(1-(2-propylpyridin-4-yl)-1H-pyrazol-4-yl)phenyl)cyclopropanesulfonamide], the inhibition at 10 µM is over 75%. Consider `CCCc1cc(-n2cc(-c3ccc(NCC4CC4)cn3)cn2)ccn1` [Example 16, N-(cyclopropylmethyl)-6-(1-(2-propylpyridin-4-yl)-1H-pyrazol-4-yl)pyridin-3-amine], for which the inhibition at 1 µM is 2 to 30% and the inhibition at 10 µM is over 75%. The corresponding values for `CCCc1cc(-n2cc(-c3ccc(NC4CCC4)nc3)cn2)ccn1` [Example 33, N-cyclobutyl-5-(1-(2-propylpyridin-4-yl)-1H-pyrazol-4-yl)pyridin-2-amine] are at least 30% and over 75%.

For `CCCc1cc(-n2cc(-c3ccc(NC4CCOCC4)nc3)cn2)ccn1` [Example 52, 5-(1-(2-propylpyridin-4-yl)-1H-pyrazol-4-yl)-N-(tetrahydro-2H-pyran-4-yl)pyridin-2-amine], the inhibition at 1 µM is at least 30% and the inhibition at 10 µM is over 75%. The corresponding values for `CCCc1cc(-n2cc(-c3ccc(NS(=O)(=O)C4CC4)cc3Cl)cn2)ccn1` [Example 10, N-(3-chloro-4-(1-(2-propylpyridin-4-yl)-1H-pyrazol-4-yl)phenyl)cyclopropanesulfonamide] are at least 30% and over 75%. As to `CCCc1cc(-n2cc(-c3ccc(NS(=O)(=O)C4CC4)cn3)cn2)ccn1` [Example 18, N-(6-(1-(2-propylpyridin-4-yl)-1H-pyrazol-4-yl)pyridin-3-yl)cyclopropanesulfonamide], the inhibition at 10 µM was over 75%.

Turning to `CCCc1cc(-n2nc(C)c(-c3ccc(NC(C)C)nc3)c2C)ccn1` [Example 36, 5-(3,5-dimethyl-1-(2-propylpyridin-4-yl)-1H-pyrazol-4-yl)-N-isopropylpyridin-2-amine], the inhibition at 10 µM lay within 50 to 75%.
